Legend:
[1] = molecular target: Menin/MLL-4-43 peptide interaction (Homo sapiens (Human), UniProt O00255); test: Menin-MLL interaction inhibitory activity assay (fluorescence polarization competition); assay type: binding; settings: FITC-MLL4-43-peptide, Menin recombinant protein
Protocol: Test Example 1: Menin-MLL Interaction Inhibitory Activity Assay
The inhibition of Menin/MLL-4-43 peptide interaction by small molecule inhibitors was quantitatively detected by fluorescence polarization competition assay. The experiment was performed in a 384-well plate (Corning, Cat #3575) using a reaction buffer consisting of 50 mM Tris, pH 7.5, 50 mM NaCl, and 1 mM DTT. A 40 μL reaction system included 10 μL of 8 nM Menin recombinant protein and 10 μL of the test compound at different concentrations. The compound was pre-incubated with Menin protein for 15 min, and then 20 μL of 10 nM FITC-MLL4-43-peptide was added. After incubation on a shaker at 25° C. for 60 min, the fluorescence polarization signal (FP 485 520 520) was read using BMG PHERAStar detection. The experimental data was analyzed and processed by GraphPad Prism 6 software to obtain the IC50 value. The control compound 1 was prepared by referring to the method of Example 64 in WO2017214367.

[2] = Stability in mouse liver microsomes; assay type: in vitro ADME; settings: 1.00 μM compound, NADPH; for half-life at 1 μM: liver microsomes, pH 7.4, 0.5 mg/mL microsomal protein, read-out: Half life T1/2, mouse liver microsomes; for Half life T1/2, mouse liver microsomes: 0.5 mg/mL microsomal protein
Protocol: (§1) Test Example 3: Test of Stability of Compounds in Liver Microsome
(§2) Test purpose: To determine the stability of some of the compounds of the present disclosure in mouse, dog and human liver microsomes by LC-MS/MS method.
(§3) Test materials: The test drugs were in-house prepared example compounds of the present disclosure; the positive reference compound SNDX-5613 was prepared by the method of Example 253 in patent WO2017214367; the control compound 1 was prepared by the method of Example 64 in WO2017214367; liver microsomes were purchased from CORNING.
(§4) The total volume of each incubation system was approximately 45 μL, and the medium was 100 mM phosphate buffer (PBS, pH 7.4), including liver microsomal protein at a final concentration of 0.5 mg/mL, 1.00 μM compound and 2.00 mM NADPH, and the organic phase content was <1%. Incubation was performed in a 37° C. incubator, and 135 μL of ice-cold acetonitrile was added after 0, 5, 15, 30 and 60 min of reaction to terminate the reaction. The positive control group was incubated with 1.00 μM Ketanserin, 0.5 mg/mL liver microsomal protein and 2.00 mM NADPH in a 37° C. incubator for 0, 5, 15, 30 and 60 min respectively, and then 135 μL of ice-cold acetonitrile was added to terminate the reaction. The 96-well plates were shaken at 600 rpm for 10 min and then centrifuged at 4700 rpm at 4° C. for 15 min. 80 μL of supernatant was mixed with 320 μL of pure water, and the remaining amount of the compound was detected by LC-MS/MS method. The in vitro half life (T½) and intrinsic clearance (CLint) were calculated according to the following formula:
(§5) Intrinsic clearance (Clint)=(0.693/T1/2)×(1/liver microsome concentration)×conversion factor. k is the linear regression slope of the remaining percentage of the ln compound-incubation time.

MV4-11 = test: Cell proliferation inhibition (CellTiter-Glo), MV4-11; assay type: cell-based; settings: MV4-11 cells
Protocol: (§6) Test Example 2: Test of the Inhibitory Ability of Menin-MLL Interaction Inhibitors on Cell Proliferation
(§7) The inhibitory ability of the compounds of the present disclosure on the proliferation of tumor cell lines (including cell lines containing MLL fusion protein such as MV4-11, MOLM-13, THP-1 and NOMO-1, control cell lines without MLL fusion protein such as HL-60, K562 and MOLM-16, and cell lines containing NPM1 mutation such as OCI-AML3) was evaluated by using the cell viability analysis method. The cells were plated in 96-well plates at a certain concentration (e.g., 5,000-20,000 cells/well), and then an equal volume of culture medium containing 2 times the final concentration of the test compound (the final concentration ranging 10 from 1 nM to 10 μM) was added. The plates were placed in an incubator and cultured at 37° C. and 5% CO2 for 72-168 h. Before the test, an equal volume of CellTiter-Glo® Luminescent reagent was added, and the plate was incubated at room temperature for 10 min before detection using an ELISA reader (BMG LABTECH). The data were analyzed using GraphPad Prism software to obtain the IC50 value and compound fitting curve. The control compound 1 was prepared by referring to the method of Example 64 in WO2017214367.

[3] = Stability in human liver microsomes; assay type: in vitro ADME; settings: 0.5 mg/mL microsomal protein, 1.00 μM compound, NADPH; for half-life at 1 μM: human, liver microsomes, pH 7.4, Human, read-out: Half life T1/2, human liver microsomes
Protocol: as §1, §2, §3, §4, §5

OCI-AML3 = test: Cell proliferation inhibition (CellTiter-Glo), OCI-AML3 (NPM1 mutation); assay type: cell-based; settings: OCI-AML3 cells
Protocol: as §6, §7

MOLM-13 = test: Cell proliferation inhibition (CellTiter-Glo), MOLM-13; assay type: cell-based; settings: MOLM-13 cells
Protocol: as §6, §7

[4] = Stability in dog liver microsomes; assay type: in vitro ADME; settings: 0.5 mg/mL microsomal protein, 1.00 μM compound, NADPH; for half-life at 1 μM: dog, liver microsomes, pH 7.4, Dog, read-out: Half life T1/2, dog liver microsomes
Protocol: as §1, §2, §3, §4, §5

[5] = Pharmacokinetics test in mouse; assay type: in vivo, ICR mice; settings: mice, p.o. 10 mg/kg; for AUC(0-t) / half-life / Cmax: male, ICR, mouse, plasma, po, 10 mg/kg; for Cmax: read-out: Cmax; for F, %: 1 mg/kg for intravenous injection
Excerpt: Test Example 4. In Vivo Pharmacokinetic Study
Test purpose: To determine the pharmacokinetic properties of some of the example compounds of the present disclosure in mice, rats and dogs after single intravenous injection (i.v.) and oral gavage (i.g.) administration by LC-MS/MS method.
Research methods: An appropriate amount of compound was weighed and prepared into a transparent clear solution of a certain concentration using 0.9% sodium chloride injection and 1.5 equivalents of 1M HCl aqueous solution based on the molar number of the compound. After SPF male ICR mice, SPF male SD rats, and male beagle dogs were fasted overnight, the test compound solution was given by intravenous injection and oral gavage at the corresponding dose. Anticoagulated whole blood of the test animals was collected at 5 min, 15 min, 30 min, 1 h, 2 h, 4 h, 8 h, and 24 h after administration, and plasma was separated. Plasma samples at each time point were detected by LC-MS/MS, and the plasma concentration of the compound was determined by the standard curve correction method. Phoenix WinNonlin 5.2 non-compartmental model was used to calculate the pharmacokinetic parameters of terminal elimination half-life (t½), blood peak concentration (Cmax), area under the concentration-time curve (AUC), clearance (CL), and bioavailability (F %), which was directly obtained from the serum concentration results. Blood drug concentration and pharmacokinetic parameters are expressed as mean±standard deviation (X±SD). The specific test protocols for each species are as follows.
Pharmacokinetics Test in Mouse
Test animals: SPF male ICR mice, weighing 25-30 g, 12 mice/compound, purchased from Chengdu Dossy Experimental Animal Co., Ltd.
Test design: On the day of the test, ICR mice were randomly divided into groups according to body weight, fasted but with free water for 12-14 h one day before administration, and fed 2 h after administration.
Preparation of test compound solution: The concentration of the test compound for oral gavage was 1 mg/mL. An appropriate amount of compound was weighed and prepared into a 1 mg/mL transparent clear solution using 0.9% sodium chloride injection and 1.5 equivalents of 1M HCl aqueous solution. The concentration of the test compound for intravenous injection was 0.2 mg/mL. The 1 mg/mL transparent clear solution was diluted to a concentration of 0.2 mg/mL using 0.9% sodium chloride injection. The volume of 1 M HCl solution added was calculated as: volume of 1 M HCl solution added […]=weighed amount of compound (mg)/molecular weight×1.5×1000. The amount added during preparation must not exceed the calculated value.
The test substance was administered as follows: intravenous injection: 1 mg/kg of dose, 5 mL/kg of volume, 6 mice; oral gavage: 10 mg/kg of dose, 10 mL/kg of volume, 6 mice.
Sample collection: Blood (40-50 μl) was collected in anticoagulant tubes sprayed with EDTA-K2 through the orbital venous plexus at 5 min, 15 min, 30 min, 1 h, 2 h, 4 h, 8 h, and 24 h after administration, and centrifuged at 10,000 rpm for 20 min within 1 h (the blood was saved on wet ice before and after centrifugation). The supernatant, which was plasma, was collected and frozen in a refrigerator at −20° C. or below for LC-MS/MS analysis of Full PK of male ICR mice (2 mice per group, 4 blood collection time points per mouse, crossover).

Sequence of Menin/MLL-4-43 peptide interaction (O00255 whole entry, species assumed): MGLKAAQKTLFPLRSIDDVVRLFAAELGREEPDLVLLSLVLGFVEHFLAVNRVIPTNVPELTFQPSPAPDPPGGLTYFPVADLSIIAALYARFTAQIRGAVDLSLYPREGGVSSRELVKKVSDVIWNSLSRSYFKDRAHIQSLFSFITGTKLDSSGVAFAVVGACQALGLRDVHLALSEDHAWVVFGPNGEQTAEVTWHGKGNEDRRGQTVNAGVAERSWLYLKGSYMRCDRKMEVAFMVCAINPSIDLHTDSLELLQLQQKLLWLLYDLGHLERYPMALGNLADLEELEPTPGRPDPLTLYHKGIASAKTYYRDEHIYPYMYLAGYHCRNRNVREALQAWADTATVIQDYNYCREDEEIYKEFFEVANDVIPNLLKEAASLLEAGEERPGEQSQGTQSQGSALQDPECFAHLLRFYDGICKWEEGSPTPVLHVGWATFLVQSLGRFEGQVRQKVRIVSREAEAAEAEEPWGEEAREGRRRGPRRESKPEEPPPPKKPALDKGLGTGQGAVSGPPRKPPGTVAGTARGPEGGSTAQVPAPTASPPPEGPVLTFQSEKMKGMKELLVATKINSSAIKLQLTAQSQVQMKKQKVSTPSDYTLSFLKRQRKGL

Row | IC50 [1] [nM] | half-life at 1 μM [2] [h] | GI50 (MV4-11; Homo sapiens, MV4-11, 72 h) [nM] | half-life at 1 μM [3] [h] | GI50 (OCI-AML3; Homo sapiens, OCI-AML-3, 168 h) [nM] | GI50 (MOLM-13; Homo sapiens, MOLM-13, 168 h) [nM] | half-life at 1 μM [4] [h] | GI50 (MV4-11; 72 h) [nM] | Half life T1/2, mouse liver microsomes [2] [h] | GI50 (OCI-AML3; 168 h) [nM] | GI50 (MOLM-13; 168 h) [nM] | Half life T1/2, human liver microsomes [3] [h] | Half life T1/2, dog liver microsomes ([4]; Dog) [h] | AUC(0-t) [5] [ng·h/mL] | half-life [5] [h] | Cmax [5] [ng/mL] | F, % [5] [%] | SMILES
1 | 49.2 | > 2 | 86.1 | 0.955 | – | – | – | – | – | – | – | – | – | – | – | – | – | CCN(C(=O)c1cc(F)ccc1Oc1nncnc1N1CC2(CCN(CC3CC4CCC3CC43CCC(=O)N3)CC2)C1)C(C)C (single isomer, unassigned) [Example 14-1a]
2 | 15.3 | > 2 | 45.4 | 0.757 | 111 | 216 | 1.33 | – | – | – | – | – | – | – | – | – | – | [2H]C([2H])([2H])C1C[C@]2(CC[C@@H](CN3CCC4(CC3)CN(c3ncnnc3Oc3ccc(F)cc3C(=O)N(CC)C(C)C)C4)CC2)NC1=O (single isomer, unassigned) [Example 42-1]
3 | 12.4 | 1.17 | – | 0.582 | 92 | 133 | 0.59 | 27.8 | – | – | – | – | – | – | – | – | – | [2H]C([2H])([2H])C1C[C@]2(CC[C@@H](CN3CCC4(CC3)CN(c3ncnnc3Oc3ccc(F)cc3C(=O)N(C(C)C)C(C)C)C4)CC2)NC1=O (single isomer, unassigned) [Example 43-1]
4 | 35.3 | > 2 | 100 | 1.31 | 140 | 329 | > 2 | – | – | – | – | – | – | – | – | – | – | CCN(C(=O)c1cc(F)ccc1Oc1nncnc1N1CC2(CCN(CC3CCC4(CC3)CN(C)C(=O)N4)CC2)C1)C(C)C (single isomer, unassigned) [Example 46-1]
5 | 20.2 | > 2 | 118 | 0.78 | – | – | 1.28 | – | – | – | – | – | – | – | – | – | – | CC(C)N(C(=O)c1cc(F)ccc1Oc1nncnc1N1CC2(CCN(CC3CCC4(CC3)CN(C)C(=O)N4)CC2)C1)C(C)C (single isomer, unassigned) [Example 47-1]
6 | 5.4 | > 2 | 17.7 | 0.396 | 22.9 | 54.4 | 1.16 | – | – | – | – | – | – | – | – | – | – | CCN(C(=O)c1cc(F)ccc1Oc1nncnc1N1CC2(CCN(C[C@H]3CC[C@]4(CC3)CC(C(C)(C)O)C(=O)N4)CC2)C1)C(C)C (single isomer, unassigned) [Example 58-1a]
7 | 5.9 | – | – | – | – | – | – | 18 | >2 | 30.2 | 56.9 | 0.593 | 1.14 | – | – | – | – | CCN(C(=O)c1cc(F)ccc1Oc1nncnc1N1CC2(CCN(C[C@H]3CC[C@]4(CC3)CC(C(C)(C)O)C(=O)N4)CC2)C1)C(C)C (single isomer, unassigned) [Example 58-1b]
8 | 156 | – | – | – | – | – | – | 82.7 | 0.0625 | – | – | 0.0795 | – | – | – | – | – | CC(C)c1ncncc1-c1cc(F)ccc1Oc1cncnc1N1CC2(CN(CC3CCC4(CC3)OCCO4)C2)C1 [Control compound 1, reference compound]
9 | 6.3 | – | 12.2 | – | 21.2 | 12.8 | – | – | – | – | – | – | – | 4040 | 1.34 | 1960 | 75 | COCC1(COC)C[C@]2(CC[C@@H](CN3CCC4(CC3)CN(c3ncncc3Oc3ccc(F)cc3C(=O)N(C(C)C)C(C)C)C4)CC2)NC1=O [Example 18]
10 | 12 | 0.808 | 20 | 0.605 | 77.9 | 157 | – | – | – | – | – | – | – | 2650 | 2.52 | 1510 | 119 | CC(C)N(C(=O)c1cc(F)ccc1Oc1cncnc1N1CC2(CCN(C[C@H]3CC[C@]4(CC3)CC(C)(C)C(=O)N4)CC2)C1)C1CC1 [Example 23]
11 | 42 | – | 51.3 | – | 108 | 110 | – | – | – | – | – | – | – | 2320 | 1.1 | 1350 | 77 | CC(C)N(C(=O)c1cc(F)ccc1Oc1nncnc1N1CC2(CCN(CC3CCC4(CC3)COC(=O)N4)CC2)C1)C(C)C (centres unmarked) [Example 49]

Source: patent publication US20250074910A1, “MENIN INHIBITOR AND USE THEREOF” (HITGEN INC., priority 2021, published 2025)
